# Experimental data as given in ChEMBL document CHEMBL5038609, “A camptothecin-based, albumin-binding prodrug enhances efficacy and safety in vivo” (Eur J Med Chem, 2021).
# The source made the active and inactive calls. The calls are words filed in the database; no cut-off is given here.
# How the values were obtained:
# [1] = Drug accumulation in mouse 4T1 cells implanted female BALB/c mouse kidney at 0.5 mg/kg, iv by fluorescence detector; assay type: ADME, organism-based; conditions: in vivo
# 4T1 [2] = test: Antitumor activity against mouse 4T1 cells implanted in female BALB/c mouse assessed as inhibition of tumor growth at 0.5 mg/kg, iv administered twice a week for 2 weeks measured on day 18; assay type: functional; set-up: scale not given: the % may be the effect or the level left; conditions: time 18 day
# [3] = Drug accumulation in mouse 4T1 cells implanted female BALB/c mouse tumor at 0.5 mg/kg, iv after 2 hrs by fluorescence detector; assay type: ADME, organism-based, Neoplasm; conditions: in vivo
# [4] = Drug accumulation in mouse 4T1 cells implanted female BALB/c mouse lung at 0.5 mg/kg, iv by fluorescence detector; assay type: ADME, organism-based; conditions: in vivo
# [5] = Toxicity in female BALB/c mouse assessed as body weight loss at 0.2 to 1.2 mg/kg, iv administered once daily for 14 consecutive days; assay type: organism-based; conditions: in vivo, 336 h, dose 0.2-1.2 mg/kg, time 14 day
# 4T1 [6] = test: Antitumor activity against mouse 4T1 cells implanted in female BALB/c mouse assessed as reduction on tumor volume at 0.5 mg/kg, iv administered twice a week for 2 weeks; assay type: functional, organism-based
# Mus musculus [7] = test: Antitumor activity against mouse 4T1 cells implanted in female BALB/c mouse assessed as increase in body weight at 0.5 mg/kg, iv administered twice a week for 2 weeks; assay type: functional, organism-based
# [8] = Toxicity in iv dosed female BALB/c mouse assessed as maximum tolerated dose administered once daily for 14 consecutive days; assay type: organism-based; conditions: in vivo, time 14 day
# [9] = Toxicity in female BALB/c mouse assessed as body weight loss at 1 to 10 mg/kg, iv administered once daily for 14 consecutive days; assay type: organism-based; conditions: in vivo, 336 h, dose 1-10 mg/kg, time 14 day
# A549 [10] = test: Antiproliferative activity against human A549 cells assessed as reduction on cell proliferation measured after 72 hrs by MTT assay; assay type: functional, cell-based
# [11] = Plasma protein binding in male Sprague-Dawley rat measured after 2 mins by HPLC analysis; assay type: ADME, cell-free; conditions: read-out: PPB (converted)
# 4T1 [12] = test: Antitumor activity against mouse 4T1 cells implanted in female BALB/c mouse assessed as inhibition of tumor growth at 0.6 to 1.2 mg/kg, iv by Ki67 staining based assay; assay type: functional, organism-based; conditions: dose 0.6-1.2 mg/kg
# 4T1 [13] = test: Antitumor activity against mouse 4T1 cells implanted in female BALB/c mouse assessed as reduction on tumor volume at 0.6 to 1.2 mg/kg, iv administered twice a week for 2 weeks; assay type: functional, organism-based; conditions: dose 0.6-1.2 mg/kg
# HCT-116 [14] = test: Antiproliferative activity against human HCT-116 cells assessed as reduction on cell proliferation measured after 72 hrs by MTT assay; assay type: functional, cell-based
# [15] = Drug accumulation in mouse 4T1 cells implanted female BALB/c mouse tumor at 1.2 mg/kg, iv after 6 hrs by fluorescence detector; assay type: ADME, organism-based, Neoplasm; conditions: in vivo
# 4T1 [16] = test: Antitumor activity against mouse 4T1 cells implanted in female BALB/c mouse assessed as inhibition of tumor growth at 0.6 mg/kg, iv administered twice a week for 2 weeks measured on day 18; assay type: functional; set-up: scale not given: the % may be the effect or the level left; conditions: time 18 day
# [17] = Toxicity in mouse 4T1 cells implanted in female BALB/c mouse assessed as pathological changes in spleen at 0.6 to 1.2 mg/kg, iv by H and E staining based analysis; assay type: organism-based; conditions: in vivo, dose 0.6-1.2 mg/kg
# [18] = Plasma protein binding in female BALB/c mouse measured after 0.25 mins by HPLC analysis; assay type: ADME, cell-free; conditions: read-out: PPB (converted)
# HepG2 [19] = test: Antiproliferative activity against human HepG2 cells assessed as reduction on cell proliferation in presence of beta-glucuronidase measured after 72 hrs by MTT assay; assay type: functional, cell-based
# [20] = Plasma protein binding in human measured after 2 mins by HPLC analysis; assay type: ADME, cell-free; conditions: read-out: PPB (converted)
# HepG2 [21] = test: Antiproliferative activity against human HepG2 cells assessed as reduction on cell proliferation measured after 72 hrs by MTT assay; assay type: functional, cell-based
# MCF7 [22] = test: Antiproliferative activity against human MCF7 cells assessed as reduction on cell proliferation in presence of beta-glucuronidase measured after 72 hrs by MTT assay; assay type: functional, cell-based
# albumin [23] = target: T1, albumin (Homo sapiens, UniProt P02768); test: Protein binding in human serum albumin measured after 8 mins by HPLC analysis; assay type: ADME, cell-free; conditions: read-out: PPB (converted)
# T1 sequence (P02768 whole entry): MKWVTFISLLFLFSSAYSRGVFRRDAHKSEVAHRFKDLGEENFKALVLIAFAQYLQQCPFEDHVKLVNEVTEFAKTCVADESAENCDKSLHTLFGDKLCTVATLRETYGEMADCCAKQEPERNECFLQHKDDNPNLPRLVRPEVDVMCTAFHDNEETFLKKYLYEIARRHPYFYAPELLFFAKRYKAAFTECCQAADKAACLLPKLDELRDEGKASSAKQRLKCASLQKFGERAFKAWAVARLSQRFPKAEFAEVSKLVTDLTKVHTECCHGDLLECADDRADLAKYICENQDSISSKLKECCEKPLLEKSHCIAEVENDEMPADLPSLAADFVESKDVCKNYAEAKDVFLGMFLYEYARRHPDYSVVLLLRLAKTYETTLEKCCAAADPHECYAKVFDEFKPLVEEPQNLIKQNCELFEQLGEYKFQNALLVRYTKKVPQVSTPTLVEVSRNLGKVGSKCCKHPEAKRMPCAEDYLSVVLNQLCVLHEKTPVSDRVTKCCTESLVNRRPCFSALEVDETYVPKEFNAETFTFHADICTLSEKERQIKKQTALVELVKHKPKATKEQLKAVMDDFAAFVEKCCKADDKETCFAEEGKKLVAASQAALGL
# [24] = Toxicity in mouse 4T1 cells implanted in female BALB/c mouse assessed as pathological changes in liver at 0.6 to 1.2 mg/kg, iv by H and E staining based analysis; assay type: organism-based; conditions: in vivo, dose 0.6-1.2 mg/kg
# [25] = Drug distribution in mouse 4T1 cells implanted in female BALB/c mouse assessed as fold change in tumor at 1.2 mg/kg, iv measured after 24 hrs by fluorescence detector; assay type: ADME, organism-based, Neoplasm; conditions: in vivo
# HCT-116 [26] = test: Antiproliferative activity against human HCT-116 cells assessed as reduction on cell proliferation in presence of beta-glucuronidase measured after 72 hrs by MTT assay; assay type: functional, cell-based
# 4T1 [27] = test: Antitumor activity against mouse 4T1 cells implanted in female BALB/c mouse assessed as inhibition of tumor growth at 1.2 mg/kg, iv administered twice a week for 2 weeks measured on day 18; assay type: functional; set-up: scale not given: the % may be the effect or the level left; conditions: time 18 day
# 4T1 [28] = test: Antiproliferative activity against mouse 4T1 cells assessed as reduction on cell proliferation in presence of beta-glucuronidase measured after 72 hrs by MTT assay; assay type: functional, cell-based
# 4T1 [29] = test: Antitumor activity against mouse 4T1 cells implanted in female BALB/c mouse assessed as tumor cell apoptosis at 0.6 to 1.2 mg/kg, iv by TUNEL staining based fluorescence assay; assay type: functional, organism-based; conditions: dose 0.6-1.2 mg/kg
# [30] = Toxicity in mouse 4T1 cells implanted in female BALB/c mouse assessed as pathological changes in kidney at 0.6 to 1.2 mg/kg, iv by H and E staining based analysis; assay type: organism-based; conditions: in vivo, dose 0.6-1.2 mg/kg
# [31] = Plasma protein binding in female BALB/c mouse measured after 2 mins by HPLC analysis; assay type: ADME, cell-free; conditions: read-out: PPB (converted)
# [32] = Plasma protein binding in male Sprague-Dawley rat measured after 0.25 mins by HPLC analysis; assay type: ADME, cell-free; conditions: read-out: PPB (converted)
# albumin [33] = target: T1, albumin; test: Protein binding in human serum albumin measured after 0.25 mins by HPLC analysis; assay type: ADME, cell-free; conditions: read-out: PPB (converted)
# [34] = Drug distribution in mouse 4T1 cells implanted in female BALB/c mouse assessed as fold change in tumor at 1.2 mg/kg, iv measured after 2 hrs by fluorescence detector; assay type: ADME, organism-based, Neoplasm; conditions: in vivo
# A549 [35] = test: Antiproliferative activity against human A549 cells assessed as reduction on cell proliferation in presence of beta-glucuronidase measured after 72 hrs by MTT assay; assay type: functional, cell-based
# [36] = Drug distribution in mouse 4T1 cells implanted in female BALB/c mouse assessed as fold change in tumor at 1.2 mg/kg, iv measured after 6 hrs by fluorescence detector; assay type: ADME, organism-based, Neoplasm; conditions: in vivo
# [37] = Toxicity in mouse 4T1 cells implanted in female BALB/c mouse assessed as pathological changes in heart at 0.6 to 1.2 mg/kg, iv by H and E staining based analysis; assay type: organism-based; conditions: in vivo, dose 0.6-1.2 mg/kg
# MCF7 [38] = test: Antiproliferative activity against human MCF7 cells assessed as reduction on cell proliferation measured after 72 hrs by MTT assay; assay type: functional, cell-based
# 4T1 [39] = test: Antiproliferative activity against mouse 4T1 cells assessed as reduction on cell proliferation measured after 72 hrs by MTT assay; assay type: functional, cell-based
# Mus musculus [40] = test: Antitumor activity against mouse 4T1 cells implanted in female BALB/c mouse assessed as increase in body weight at 0.6 to 1.2 mg/kg, iv administered twice a week for 2 weeks; assay type: functional, organism-based; conditions: dose 0.6-1.2 mg/kg
# [41] = Plasma protein binding in human measured after 0.25 mins by HPLC analysis; assay type: ADME, cell-free; conditions: read-out: PPB (converted)
# [42] = Drug distribution in mouse 4T1 cells implanted in female BALB/c mouse assessed as fold change in tumor at 1.2 mg/kg, iv measured after 48 hrs by fluorescence detector; assay type: ADME, organism-based, Neoplasm; conditions: in vivo
# [43] = Toxicity in mouse 4T1 cells implanted in female BALB/c mouse assessed as pathological changes in lung at 0.6 to 1.2 mg/kg, iv by H and E staining based analysis; assay type: organism-based; conditions: in vivo, dose 0.6-1.2 mg/kg
compound,measurement,setting,value
CC[C@@]1(O)C(=O)OCc2c1cc1n(c2=O)Cc2c-1nc1cc3c(cc1c2-c1ccncc1)OCO3,Drug uptake,[1],Active
same,Activity,4T1 [2],27%
same,Drug uptake,[3],1.09%
same,Drug uptake,[4],Active
same,Activity,[5],10%
same,Activity,4T1 [6],Active
same,Activity,Mus musculus [7],Active
same,MTD at 336 h,[8],0.4 mg/kg
CC[C@@]1(O)C(=O)OCc2c1cc1n(c2=O)Cc2c-1nc1cc3c(cc1c2-c1cc[n+](Cc2ccc(O[C@@H]4O[C@@H](C(=O)O)[C@@H](O)[C@H](O)[C@H]4O)c(NC(=O)CCCn4cc(CNC(=O)CCCCCN5C(=O)C=CC5=O)nn4)c2)cc1)OCO3.O=C([O-])C(F)(F)F,Activity,[9],10%
same,Activity,A549 [10],Active
same,fraction unbound at 2 min,[11],0.0188
same,Activity,4T1 [12],Active
same,Activity,4T1 [13],Active
same,Activity,HCT-116 [14],Active
same,Drug uptake,[15],17.34%
same,Activity,4T1 [16],56%
same,Activity,[17],Non-Toxic
same,fraction unbound at 15 s,[18],0.0723
same,Activity,HepG2 [19],Active
same,fraction unbound at 2 min,[20],0.0291
same,Activity,HepG2 [21],Active
same,Activity,MCF7 [22],Active
same,fraction unbound at 8 min,albumin [23],0.015
same,Activity,[24],Non-Toxic
same,fold change (FC),[25],16
same,Activity,HCT-116 [26],Active
same,Activity,4T1 [27],77%
same,Activity,4T1 [28],Active
same,Activity,4T1 [29],Active
same,Activity,[30],Non-Toxic
same,fraction unbound at 2 min,[31],0.0512
same,fraction unbound at 15 s,[32],0.0224
same,fraction unbound at 15 s,albumin [33],0.0679
same,fold change (FC),[34],9
same,Activity,A549 [35],Active
same,fold change (FC),[36],18
same,Activity,[37],Non-Toxic
same,Activity,MCF7 [38],Active
same,Activity,4T1 [39],Active
same,MTD at 336 h,[8],2.5 mg/kg
same,Activity,Mus musculus [40],Active
same,fraction unbound at 15 s,[41],0.034
same,fold change (FC),[42],14
same,Activity,[43],Non-Toxic
